Experimental data as given in patent publication US20250154169A1, “COMPOUNDS AND METHODS FOR MODULATING SPLICING” (REMIX THERAPEUTICS INC., priority 2021, published 2025).
Counter-ions that a name gives are not always drawn. Like-named read-outs stand apart in the source and are kept apart here.

Columns and labels:
Format in all cases: cell-based, human
SMN2 mRNA = assay: Splicing RT-qPCR gene panel, SMN2 canonical junction (CJ) mRNA; settings: Homo sapiens, Tables 4A/4B, read-out: SMN2 (IC50, decrease in CJ mRNA, gene panel)
Procedure, shortened: (§1)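 Canonical-junction mRNA levels were quantified by RT-qPCR in lysates, using ΔΔCt against a housekeeping gene (GAPDH, GUSB or PPIA) and DMSO wells, expressed as percentage response. Cells (A673 or K562) had been exposed for 24 h at 37° C. to 11 three-fold compound concentrations up to 10 uM, DMSO ≤0.25%.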

HTT mRNA [1] = assay: Splicing RT-qPCR assay, HTT canonical (CJ) and alternative (AJ) junction mRNA; settings: A673 or K562 cells, 24 hours compound treatment; for IC50: read-out: HTT CJ (IC50, decrease in canonical junction mRNA); for AC50: read-out: HTT AJ (AC50, increase in alternative junction mRNA)
Procedure, shortened: (§2)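 Canonical (CJ) and alternative-exon (AJ) junction mRNAs quantified by one-step RT-qPCR in cell lysates, normalized to housekeeping PPIA for A673 and GAPDH or GUSB for K562. Cells were exposed 24 h at 37 °C to 11-point 3-fold compound series from 10 uM final, with DMSO at or below 0.25%.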

HTT mRNA [2] = assay: Splicing RT-qPCR gene panel, HTT canonical junction (CJ) mRNA; settings: Tables 4A/4B, read-out: HTT (IC50, decrease in CJ mRNA, gene panel)
Procedure, shortened: as §1

MYB mRNA = assay: Splicing RT-qPCR assay, MYB canonical (CJ) and alternative (AJ) junction mRNA; settings: for AC50: read-out: MYB AJ (AC50, increase in alternative junction mRNA)
Procedure, shortened: as §2

Target C mRNA = assay: Splicing RT-qPCR gene panel, Target C canonical junction (CJ) mRNA; settings: Tables 4A/4B, read-out: Target C (IC50, decrease in CJ mRNA, gene panel)
Procedure, shortened: as §1

[3] = Homo sapiens, 24 h, A673 or K562 cells, 24 hours compound treatment, RT-qPCR
[4] = Homo sapiens, 24 h, A673 or K562 cells, 24 hours compound treatment, RT-qPCR, read-out: MYB CJ (IC50, decrease in canonical junction mRNA)
[5] = Homo sapiens, Tables 4A/4B, canonical junction qPCR panel, read-out: MYB (IC50, decrease in CJ mRNA, gene panel)

| IC50 (SMN2 mRNA) [nM] | IC50 (HTT mRNA [1]; Homo sapiens, 24 h) [nM] | IC50 (HTT mRNA [2]; Homo sapiens) [nM] | IC50 (MYB mRNA; [4]) [nM] | IC50 (MYB mRNA; [5]) [nM] | IC50 (Target C mRNA; Homo sapiens) [nM] | IC50 (HTT mRNA [1]) [nM] | IC50 (HTT mRNA [2]) [nM] | IC50 (MYB mRNA; A673 or K562 cells, 24 hours compound treatment, RT-qPCR, read-out: MYB CJ (IC50, decrease in canonical junction mRNA)) [nM] | IC50 (MYB mRNA; Tables 4A/4B, canonical junction qPCR panel, read-out: MYB (IC50, decrease in CJ mRNA, gene panel)) [nM] | IC50 (Target C mRNA) [nM] | SMILES | AC50 (HTT mRNA [1]; Homo sapiens) [nM] | AC50 (MYB mRNA; [3]) [nM] | AC50 (MYB mRNA; A673 or K562 cells, 24 hours compound treatment, RT-qPCR) [nM] |
| --- | --- | --- | --- | --- | --- | --- | --- | --- | --- | --- | --- | --- | --- | --- |
| < 100 | > 10000 | > 10000 | 100 to 1000 | 100 to 1000 | > 10000 |  |  |  |  |  | Cn1cc2cc(NC(=O)c3ccc(N4CCNCC4)c4cn(C)nc34)ccc2n1 [Compound 324, 2-methyl-N-(2-methylindazol-5-yl)-4-(piperazin-1-yl) indazole-7-carboxamide hydrochloride] | 1000 to 10000 | 100 to 1000 |  |
| < 100 | 1000 to 10000 | 1000 to 10000 | 100 to 1000 | 100 to 1000 | > 10000 |  |  |  |  |  | Cc1cn2cc(NC(=O)c3ccc(N4CCNCC4)c4cn(CCF)nc34)cc(F)c2n1 [Compound 305, N-{8-fluoro-2-methylimidazo[1,2-a]pyridin-6-yl}-2-(2-fluoroethyl)-4-(piperazin-1-yl)indazole-7-carboxamide] | 1000 to 10000 | 100 to 1000 |  |
| < 100 | 100 to 1000 | 100 to 1000 | < 100 | < 100 | 1000 to 10000 |  |  |  |  |  | Cc1cn2cc(NC(=O)c3ccc(N4CCN[C@H](C)C4)c4cn(C)nc34)cc(F)c2n1 (single isomer, unassigned) [Compound 353] | 100 to 1000 | < 100 |  |
| 1000 to 10000 | 1000 to 10000 | 1000 to 10000 | > 10000 | > 10000 | > 10000 |  |  |  |  |  | Cc1cn2cc(-c3ccc(C(=O)NC4CCNCC4)c4nn(C)cc34)cc(F)c2n1 [Compound 280] | 1000 to 10000 | 1000 to 10000 |  |
| < 100 | 1000 to 10000 | 1000 to 10000 | < 100 | < 100 | > 10000 |  |  |  |  |  | Cc1cn2cc(NC(=O)c3ccc(N4CCNCC4)c4cn(C)nc34)ncc2n1 [Compound 246] | 1000 to 10000 | < 100 |  |
| < 100 | < 100 | < 100 | < 100 | < 100 | 1000 to 10000 |  |  |  |  |  | COc1nc(NC(=O)c2ccc(N3CCNCC3)c3cn(C)nc23)cn2cc(C)nc12 [Compound 323] | 100 to 1000 | < 100 |  |
| < 100 |  |  |  |  |  | 1000 to 10000 | 1000 to 10000 | 100 to 1000 | < 100 | 1000 to 10000 | Cc1cn2cc(NC(=O)c3ccc(N4CCNCC4)c4cn(C)nc34)c(C#N)cc2n1 [Compound 444, N-{7-cyano-2-methylimidazo[1,2-a]pyridin-6-yl}-2-methyl-4-(piperazin-1-yl) indazole-7-carboxamide] | > 10000 |  | 100 to 1000 |
| < 100 | 100 to 1000 | 100 to 1000 | < 100 | < 100 | 1000 to 10000 |  |  |  |  |  | Cc1cn2cc(NC(=O)c3ccc(N4CCC5(CCN5)CC4)c4cn(C)nc34)cc(F)c2n1 [Compound 301, 4-{1,7-diazaspiro[3.5]nonan-7-yl}-N-{8-fluoro-2-methylimidazo[1,2-a]pyridin-6-yl}-2-methylindazole-7-carboxamide trifluoroacetic acid salt] | 100 to 1000 | < 100 |  |
| < 100 | > 10000 | > 10000 | 100 to 1000 | 100 to 1000 | > 10000 |  |  |  |  |  | Cc1cn2cc(NC(=O)c3ccc(N4CCC(N(C)C)C4)c4cc(C)oc34)cc(F)c2n1 (stereo not drawn) [Compound 202] | 1000 to 10000 | < 100 |  |
